Experimental data published in patent EP4707280A1, “1,4-CINEOLE DERIVATIVE AND INTERMEDIATE THEREOF, HERBICIDE CONTAINING SAID DERIVATIVE AS ACTIVE INGREDIENT, METHOD FOR USING HERBICIDE, AND METHOD FOR PREPARING AGROCHEMICAL COMPOSITION” (HOKKO CHEMICAL INDUSTRY CO., LTD., priority 2023, dated 2024).

Assays:
Assay type in all cases: in vivo
[1] = tested on: Echinochloa crus-galli var. formosensis; experiment: Test Example 1: herbicidal effect test by soil application in paddy rice; settings: Echinochloa crus-galli, soil, 336 h; 120 g active ingredient per 10 ares; applied immediately after sowing, flooded pots; 14 days after application; read-out: weed inhibition rate
Method: Wagner pots with an area of […] were filled with paddy soil, followed by addition of water and incorporation of chemical fertilizer (N:P:K = 16:16:16), after which puddling was performed. After that, seeds of Echinochloa crus-galli var. formosensis, broad-leaved weeds ([…] Monochoria vaginalis), and Scirpus juncoides were sown at a depth of 0 cm to 1 cm, 30 seeds each. Immediately after sowing, the pots were flooded and a water depth of approximately 3 cm was maintained. Subsequent management was conducted in a glass greenhouse. Immediately thereafter, an emulsifiable concentrate prepared according to Formulation Example 5 using the compound shown below was diluted with water, and a specified amount of the diluted solution was applied by dropper. The amount of the active ingredient to be applied was equivalent to 120 g per 10 ares.

[2] = tested on: Echinochloa crus-galli var. formosensis; experiment: Test Example 2: herbicidal effect test by application during growth period of paddy rice; settings: Echinochloa crus-galli; 120 g per 10 ares; applied seven days after sowing, flooded pots; 14 days after application; read-out: weed inhibition rate
Method: (§1) The present test was conducted in duplicate for each chemical concentration group, and the weed inhibition rate (%) was determined 14 days after chemical application using the following formula (Math. 1). [formula]
Wagner pots with an area of […] were filled with paddy soil, followed by addition of water and incorporation of chemical fertilizer (N:P:K = 16:16:16), after which puddling was performed. After that, seeds of Echinochloa crus-galli var. formosensis, broad-leaved weeds (Monochoria vaginalis), and Scirpus juncoides were sown at a depth of 0 cm to 1 cm, 30 seeds each. Immediately after sowing, the pots were flooded and a water depth of approximately 3 cm was maintained. Subsequent management was conducted in a glass greenhouse. Seven days after sowing, an emulsifiable concentrate prepared according to Formulation Example 5 using the compound shown below was diluted with water, and a specified amount of the diluted solution was applied by dropper. The amount of the active ingredient to be applied was equivalent to 120 g per 10 ares. The test was conducted in duplicate for each chemical concentration group, and the herbicidal effect was evaluated 14 days after chemical application using the same criteria as in Test Example 1.

Digitaria ciliaris [3] = experiment: Test Example 3: herbicidal effect test by soil application in upland field; settings: Digitaria ciliaris, 120 g per 10 ares, sprayed one day after sowing, 14 days after application, read-out: weed inhibition rate
Method: as §1
(§2) Pots with an area of 36 cm^2 were filled with upland soil (alluvial loam), twenty seeds each of weeds of Digitaria ciliaris, Echinochloa crus-galli, Chenopodium album, and Amaranthus viridis were uniformly mixed with the top 1 cm layer of soil and the surface was lightly pressed down. One day after sowing, an emulsifiable concentrate prepared according to Formulation Example 5 using the compound shown below was diluted with water, and the diluted solution was sprayed onto the soil surface at a rate of 100 liters per 10 ares. The amount of the active ingredient to be applied was equivalent to 120 g per 10 ares. Fourteen days after chemical application, the herbicidal effect was evaluated according to the same criteria as in Test Example 1.

Echinochloa crus-galli [4] = experiment: as above; settings: Echinochloa crus-galli, 120 g per 10 ares, sprayed one day after sowing, 14 days after application, read-out: weed inhibition rate
Method: as §1, §2

Digitaria ciliaris [5] = experiment: Test Example 4: herbicidal effect test by stem and leaf treatment in upland field; settings: Digitaria ciliaris; 120 g per 10 ares; sprayed seven days after sowing, upland soil; 14 days after application; read-out: weed inhibition rate
Method: as §1
as §2, with “crus-galli,” for “crus-galli, Chenopodium album,”, “Seven days” for “One day”

Echinochloa crus-galli [6] = experiment: as above; settings: Echinochloa crus-galli; 120 g per 10 ares; sprayed seven days after sowing, upland soil; 14 days after application; read-out: weed inhibition rate

CC(C)[C@@]12C[C@H](OCc3c(F)cccc3Br)[C@@](C)(C[C@H]1Br)O2 [1-1609, (1R,2S,4S,5R)-5-bromo-2-[(2-bromo-6-fluorophenyl)methoxy]-1-methyl-4-isopropyl-7-oxabicyclo[2.2.1]heptane]
≥ 80%: pest or weed control at 1200 g/ha [1] | inhibition at 1200 g/ha [2] | inhibition at 1200 g/ha (Digitaria ciliaris [3]) | inhibition at 1200 g/ha (Echinochloa crus-galli [4]) | inhibition at 1200 g/ha (Digitaria ciliaris [5]) | inhibition at 1200 g/ha (Echinochloa crus-galli [6])

CC(C)C12CC(OCc3cccc(Cl)c3)C(C)(CC1Br)O2 (stereo not drawn) [1-1359, 5-bromo-2-[(3-chlorophenyl)methoxy]-1-methyl-4-isopropyl-7-oxabicyclo[2.2.1]heptane]
≥ 80%: pest or weed control at 1200 g/ha [1] | inhibition at 1200 g/ha [2] | inhibition at 1200 g/ha (Digitaria ciliaris [3]) | inhibition at 1200 g/ha (Echinochloa crus-galli [4]) | inhibition at 1200 g/ha (Digitaria ciliaris [5]) | inhibition at 1200 g/ha (Echinochloa crus-galli [6])

CC(C)[C@]12C[C@@H](OCc3ccc(C#N)cc3)[C@](C)(C[C@@H]1Br)O2 [1-705, 4-[[(1S,2R,4R,5S)-5-bromo-1-methyl-4-isopropyl-7-oxabicyclo[2.2.1]heptan-2-yl]oxymethyl]benzonitrile]
≥ 80%: pest or weed control at 1200 g/ha [1] | inhibition at 1200 g/ha [2] | inhibition at 1200 g/ha (Digitaria ciliaris [3]) | inhibition at 1200 g/ha (Echinochloa crus-galli [4]) | inhibition at 1200 g/ha (Digitaria ciliaris [5]) | inhibition at 1200 g/ha (Echinochloa crus-galli [6])

CC(C)[C@@]12C[C@H](OCc3ccccc3Cl)[C@@](C)(C[C@H]1I)O2 [1-1097, (1R,2S,4S,5R)-2-[(2-chlorophenyl)methoxy]-5-iodo-1-methyl-4-isopropyl-7-oxabicyclo[2.2.1]heptane]
≥ 80%: pest or weed control at 1200 g/ha [1] | inhibition at 1200 g/ha [2] | inhibition at 1200 g/ha (Digitaria ciliaris [3]) | inhibition at 1200 g/ha (Echinochloa crus-galli [4]) | inhibition at 1200 g/ha (Digitaria ciliaris [5]) | inhibition at 1200 g/ha (Echinochloa crus-galli [6])

CC(C)C12CC(OCc3ccccc3OC(F)(F)F)C(C)(CC1Br)O2 (stereo not drawn) [1-1352, 5-bromo-1-methyl-4-isopropyl-2-[[2-(trifluoromethoxy)phenyl]methoxy]-7-oxabicyclo[2.2.1]heptane]
≥ 80%: pest or weed control at 1200 g/ha [1] | inhibition at 1200 g/ha [2] | inhibition at 1200 g/ha (Digitaria ciliaris [3]) | inhibition at 1200 g/ha (Echinochloa crus-galli [4]) | inhibition at 1200 g/ha (Digitaria ciliaris [5]) | inhibition at 1200 g/ha (Echinochloa crus-galli [6])

CC(C)C12CC(OCc3cccc(I)c3)C(C)(CC1Br)O2 (stereo not drawn) [1-1365, 5-bromo-2-[(3-iodophenyl)methoxy]-1-methyl-4-isopropyl-7-oxabicyclo[2.2.1]heptane]
≥ 80%: pest or weed control at 1200 g/ha [1] | inhibition at 1200 g/ha [2] | inhibition at 1200 g/ha (Digitaria ciliaris [3]) | inhibition at 1200 g/ha (Echinochloa crus-galli [4]) | inhibition at 1200 g/ha (Digitaria ciliaris [5]) | inhibition at 1200 g/ha (Echinochloa crus-galli [6])

CC(C)[C@@]12C[C@H](OCc3c(Cl)cccc3Cl)[C@@](C)(C[C@H]1Br)O2 [1-1053, (1R,2S,4S,5R)-5-bromo-2-[(2,6-dichlorophenyl)methoxy]-1-methyl-4-isopropyl-7-oxabicyclo[2.2.1]heptane]
≥ 80%: pest or weed control at 1200 g/ha [1] | inhibition at 1200 g/ha [2] | inhibition at 1200 g/ha (Digitaria ciliaris [3]) | inhibition at 1200 g/ha (Echinochloa crus-galli [4]) | inhibition at 1200 g/ha (Digitaria ciliaris [5]) | inhibition at 1200 g/ha (Echinochloa crus-galli [6])

CC(C)C12CC(OCc3ccccc3C#N)C(C)(CC1Br)O2 (stereo not drawn) [1-1370, 2-[(5-bromo-1-methyl-4-isopropyl-7-oxabicyclo[2.2.1]heptan-2-yl)oxymethyl]benzonitrile]
≥ 80%: pest or weed control at 1200 g/ha [1] | inhibition at 1200 g/ha [2] | inhibition at 1200 g/ha (Digitaria ciliaris [3]) | inhibition at 1200 g/ha (Echinochloa crus-galli [4]) | inhibition at 1200 g/ha (Digitaria ciliaris [5]) | inhibition at 1200 g/ha (Echinochloa crus-galli [6])

CC(C)[C@@]12C[C@H](OCc3ccccc3C#N)[C@@](C)(C[C@H]1I)O2 [1-1109, 2-[[(1R,2S,4S,5R)-5-iodo-1-methyl-4-isopropyl-7-oxabicyclo[2.2.1]heptan-2-yl]oxymethyl]benzonitrile]
≥ 80%: pest or weed control at 1200 g/ha [1] | inhibition at 1200 g/ha [2] | inhibition at 1200 g/ha (Digitaria ciliaris [3]) | inhibition at 1200 g/ha (Echinochloa crus-galli [4]) | inhibition at 1200 g/ha (Digitaria ciliaris [5]) | inhibition at 1200 g/ha (Echinochloa crus-galli [6])

COc1cccc(COC2CC3(C(C)C)OC2(C)CC3Br)c1 (stereo not drawn) [1-1350, 5-bromo-2-[(3-methoxyphenyl)methoxy]-1-methyl-4-isopropyl-7-oxabicyclo[2.2.1]heptane]
≥ 80%: pest or weed control at 1200 g/ha [1] | inhibition at 1200 g/ha [2] | inhibition at 1200 g/ha (Digitaria ciliaris [3]) | inhibition at 1200 g/ha (Echinochloa crus-galli [4]) | inhibition at 1200 g/ha (Digitaria ciliaris [5]) | inhibition at 1200 g/ha (Echinochloa crus-galli [6])

Cc1cccc(C)c1CO[C@H]1C[C@@]2(C(C)C)O[C@]1(C)C[C@H]2Br [1-1608, (1R,2S,4S,5R)-5-bromo-2-[(2,6-dimethylphenyl)methoxy]-1-methyl-4-isopropyl-7-oxabicyclo[2.2.1]heptane]
≥ 80%: pest or weed control at 1200 g/ha [1] | inhibition at 1200 g/ha [2] | inhibition at 1200 g/ha (Digitaria ciliaris [3]) | inhibition at 1200 g/ha (Echinochloa crus-galli [4]) | inhibition at 1200 g/ha (Digitaria ciliaris [5]) | inhibition at 1200 g/ha (Echinochloa crus-galli [6])

COc1ccccc1CO[C@H]1C[C@@]2(C(C)C)O[C@]1(C)C[C@H]2I [1-1088, (1R,2S,4S,5R)-5-iodo-2-[(2-methoxyphenyl)methoxy]-1-methyl-4-isopropyl-7-oxabicyclo[2.2.1]heptane]
≥ 80%: pest or weed control at 1200 g/ha [1] | inhibition at 1200 g/ha [2] | inhibition at 1200 g/ha (Digitaria ciliaris [3]) | inhibition at 1200 g/ha (Echinochloa crus-galli [4]) | inhibition at 1200 g/ha (Digitaria ciliaris [5]) | inhibition at 1200 g/ha (Echinochloa crus-galli [6])

CC(C)=CCO[C@H]1C[C@@]2(C(C)C)O[C@]1(C)C[C@H]2I [1-1073, (1R,2S,4S,5R)-5-iodo-1-methyl-2-(3-methylbut-2-enoxy)-4-isopropyl-7-oxabicyclo[2.2.1]heptane]
≥ 80%: pest or weed control at 1200 g/ha [1] | inhibition at 1200 g/ha [2] | inhibition at 1200 g/ha (Digitaria ciliaris [3]) | inhibition at 1200 g/ha (Echinochloa crus-galli [4]) | inhibition at 1200 g/ha (Digitaria ciliaris [5]) | inhibition at 1200 g/ha (Echinochloa crus-galli [6])

CC(C)[C@@]12C[C@H](OCc3ccccc3Cl)[C@@](C)(CC1Br)O2 (mixture of isomers) [1-1031, (1R,2S,4S,SR)-5-bromo-2-[(2-chlorophenyl)methoxy]-1-methyl-4-isopropyl-7-oxabicyclo[2.2.1]heptane]
≥ 80%: pest or weed control at 1200 g/ha [1] | inhibition at 1200 g/ha [2] | inhibition at 1200 g/ha (Digitaria ciliaris [3]) | inhibition at 1200 g/ha (Echinochloa crus-galli [4]) | inhibition at 1200 g/ha (Digitaria ciliaris [5]) | inhibition at 1200 g/ha (Echinochloa crus-galli [6])

CC(C)[C@]12C[C@@H](OCc3ccccc3F)[C@](C)(C[C@@H]1OCC(F)(F)F)O2 [1-1605, (1S,2R,4R,5S)-2-[(2-fluorophenyl)methoxy]-1-methyl-4-isopropyl-5-(2,2,2-trifluoroethoxy)-7-oxabicyclo[2.2.1]heptane]
≥ 80%: pest or weed control at 1200 g/ha [1] | inhibition at 1200 g/ha [2] | inhibition at 1200 g/ha (Digitaria ciliaris [3]) | inhibition at 1200 g/ha (Echinochloa crus-galli [4]) | inhibition at 1200 g/ha (Digitaria ciliaris [5]) | inhibition at 1200 g/ha (Echinochloa crus-galli [6])

CC(C)C12CC(OCc3cccc(Br)c3)C(C)(CC1Br)O2 (stereo not drawn) [1-1362, 5-bromo-2-[(3-bromophenyl)methoxy]-1-methyl-4-isopropyl-7-oxabicyclo[2.2.1]heptane]
≥ 80%: pest or weed control at 1200 g/ha [1] | inhibition at 1200 g/ha [2] | inhibition at 1200 g/ha (Digitaria ciliaris [3]) | inhibition at 1200 g/ha (Echinochloa crus-galli [4]) | inhibition at 1200 g/ha (Digitaria ciliaris [5]) | inhibition at 1200 g/ha (Echinochloa crus-galli [6])
